Patent US20220370416A1, “COMPOUNDS AND METHODS FOR TARGETED DEGRADATION OF KRAS” (Arvinas Operations, Inc., priority 2020, published 2022)

Assays:
HiBit-KRAS^G12C [1] = target: T1, HiBit-KRAS^G12C (Homo sapiens, UniProt P01116, G12C); experiment: HiBit degradation assay in MiaPaCa-2 HiBit-KRas^G12C cells; type: cell-based; conditions: 0.5% DMSO, 24 hours; for DC50: read-out: KRas^G12C-HiBiT (MiaPaCa; 0.5% DMSO) IC50; for Dmax: MIA PaCa-2, MiaPaCa-2 HiBit-KRas^G12C cells, read-out: KRas^G12C-HiBiT (MiaPaCa; 0.5% DMSO) DMax
T1 sequence (P01116 1-186 isoform P01116-2 G12C limits assumed): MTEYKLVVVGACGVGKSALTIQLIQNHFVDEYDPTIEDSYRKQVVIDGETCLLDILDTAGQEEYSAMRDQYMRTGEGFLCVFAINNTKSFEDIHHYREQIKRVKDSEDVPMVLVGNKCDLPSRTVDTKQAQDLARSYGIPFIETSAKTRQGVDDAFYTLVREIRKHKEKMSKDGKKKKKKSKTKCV
In short: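 MiaPaCa-2 cells with CRISPR N-terminal HiBit knock-in on one endogenous KRAS^G12C allele, treated 24 hours at 37° C with compound titrated 10 μM to 20 nM (0.1% or 0.5% DMSO). Lytic HiBit luminescence normalized to DMSO, 4-parameter fit giving DC50 and Dmax; points cytotoxic to […] cells by alamar blue excluded.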

HiBit-KRAS^G12C [2] = target: T1, HiBit-KRAS^G12C; experiment: HiBit degradation assay in SW1573 HiBit-KRas^G12C cells; type: cell-based; design: expressed in transfected cells; host or cells: SW1573 (clone E6), modified pcDNA3.1 vector, TK promoter; conditions: 0.5% DMSO, 24 hours; for DC50: read-out: KRas^G12C-HiBiT (SW1573; 0.5% DMSO) IC50***, SW1573 HiBit-KRas^G12C; for Dmax: SW1573, SW1573 HiBit-KRas^G12C, read-out: KRas^G12C-HiBiT (SW1573; 0.5% DMSO) Dmax**
In short: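 SW1573 cells stably expressing N-terminally HiBit-tagged KRAS G12C, under the TK promoter, were treated 24 h at 37 °C with 10 μM to 20 nM compound in 0.1% or 0.5% DMSO. Residual HiBit luminescence normalised to DMSO and fitted with a 4-parameter model for DC50 and Dmax. Points with ≥50% viability loss (alamar blue) excluded.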

[3] = MiaPaCa-2 HiBit-KRas^G12C cells

Row | SMILES | DC50 (HiBit-KRAS^G12C [1]; [3]) [nM] | DC50 (HiBit-KRAS^G12C [2]) [nM] | Dmax (HiBit-KRAS^G12C [1]; maximum degradation) [%] | Dmax (HiBit-KRAS^G12C [2]) [%] | KRas^G12C-HiBiT (MiaPaCa; 0.5% DMSO) DMax (HiBit-KRAS^G12C [1]; MiaPaCa-2 HiBit-KRas^G12C cells, maximum degradation)
1 | C=C(F)C(=O)N1CCN(c2nc(OCCN3CCC(C)(COc4cc([C@@H](C(=O)N5C[C@H](O)C[C@H]5C(=O)N[C@@H](C)c5ccc(-c6ccnn6C)cc5)C(C)C)on4)CC3)nc3c(F)c(-c4cc(O)cc5ccccc45)c(Cl)cc23)C[C@@H]1CC#N (atropisomer, axis not shown) [Compound 125, (2S,4R)-1-[(2S)-2-[3-({1-[2-({6-chloro-4-[(3S)-3-(cyanomethyl)-4-(2-fluoroprop-2-enoyl)piperazin-1-yl]-8-fluoro-7-(3-hydroxynaphthalen-1-yl)quinazolin-2-yl}oxy)ethyl]-4-methylpiperidin-4-yl}methoxy)-1,2-oxazol-5-yl]-3-methylbutanoyl]-4-hydroxy-N-[(1S)-1-[4-(1-methyl-1H-pyrazol-5-yl)phenyl]ethyl]pyrrolidine-2-carboxamide] | > 1000 | 100 to 1000 |  |  | 
2 | C=C(F)C(=O)N1CCN(c2nc(OCCN3CCC(C)(COc4cc([C@@H](C(=O)N5C[C@H](O)C[C@H]5C(=O)N[C@@H](C)c5ccc(-c6scnc6C)cc5)C(C)C)on4)CC3)nc3c(F)c(-c4cc(O)cc5ccccc45)c(Cl)cc23)C[C@@H]1CC#N (atropisomer, axis not shown) [Compound 126, (2S,4R)-1-[(2S)-2-[3-({1-[2-({6-chloro-4-[(3S)-3-(cyanomethyl)-4-(2-fluoroprop-2-enoyl)piperazin-1-yl]-8-fluoro-7-(3-hydroxynaphthalen-1-yl)quinazolin-2-yl}oxy)ethyl]-4-methylpiperidin-4-yl}methoxy)-1,2-oxazol-5-yl]-3-methylbutanoyl]-4-hydroxy-N-[(1S)-1-[4-(4-methyl-1,3-thiazol-5-yl)phenyl]ethyl]pyrrolidine-2-carboxamide] | > 1000 | > 1000 |  |  | 
3 | C=C(F)C(=O)N1CCN(c2nc(OCCN3CCC(COCC(=O)N[C@H](C(=O)N4C[C@H](O)C[C@H]4C(=O)N[C@@H](C)c4ccc(-c5ccnn5C)cc4)C(C)(C)C)CC3)nc3c(F)c(-c4cc(O)cc5ccccc45)c(Cl)cc23)C[C@@H]1CC#N (atropisomer, axis not shown) [Compound 129, (2S,4R)-1-[(2S)-2-[2-({1-[2-({6-chloro-4-[(3S)-3-(cyanomethyl)-4-(2-fluoroprop-2-enoyl)piperazin-1-yl]-8-fluoro-7-(3-hydroxynaphthalen-1-yl)quinazolin-2-yl}oxy)ethyl]piperidin-4-yl}methoxy)acetamido]-3,3-dimethylbutanoyl]-4-hydroxy-N-[(1S)-1-[4-(1-methyl-1H-pyrazol-5-yl)phenyl]ethyl]pyrrolidine-2-carboxamide] | 100 to 1000 | 100 to 1000 | > 70 | > 70 | 
4 | C=CC(=O)N1CCN(c2nc(OCCN3CCC(COCC(=O)N[C@H](C(=O)N4C[C@H](O)C[C@H]4C(=O)N[C@@H](C)c4ccc(-c5ccnn5C)cc4)C(C)(C)C)CC3)nc3c(F)c(-c4cc(O)cc5ccccc45)c(Cl)cc23)C[C@@H]1CC#N (atropisomer, axis not shown) [Compound 136, (2S,4R)-1-[(2S)-2-[2-({1-[2-({6-chloro-4-[(3S)-3-(cyanomethyl)-4-(prop-2-enoyl)piperazin-1-yl]-8-fluoro-7-(3-hydroxynaphthalen-1-yl)quinazolin-2-yl}oxy)ethyl]piperidin-4-yl}methoxy)acetamido]-3,3-dimethylbutanoyl]-4-hydroxy-N-[(1S)-1-[4-(1-methyl-1H-pyrazol-5-yl)phenyl]ethyl]pyrrolidine-2-carboxamide] | 100 to 1000 | 100 to 1000 | > 70 | > 70 | 
5 | C=CC(=O)N1CCN(c2nc(OCCN3CCC(COc4cc([C@H](C(=O)N5C[C@H](O)C[C@H]5C(=O)N[C@@H](C)c5ccc(-c6ccnn6C)cc5)C(C)C)on4)CC3)nc3c(F)c(-c4cc(O)cc5ccccc45)c(Cl)cc23)C[C@@H]1CC#N (atropisomer, axis not shown) [Compound 138, (2S,4R)-1-[(2R)-2-[3-({1-[2-({6-chloro-4-[(3S)-3-(cyanomethyl)-4-(prop-2-enoyl)piperazin-1-yl]-8-fluoro-7-(3-hydroxynaphthalen-1-yl)quinazolin-2-yl}oxy)ethyl]-piperidin-4-yl}methoxy)-1,2-oxazol-5-yl]-3-methylbutanoyl]-4-hydroxy-N-[(1S)-1-[4-(1-methyl-1H-pyrazol-5-yl)phenyl]ethyl]pyrrolidine-2-carboxamide] | 100 to 1000 | < 100 | > 70 | > 70 | 
6 | C=C(F)C(=O)N1CCN(c2nc(OCCN3CCC(COc4cc([C@H](C(=O)N5C[C@H](O)C[C@H]5C(=O)N[C@@H](C)c5ccc(-c6ccnn6C)cc5)C(C)C)on4)CC3)nc3c(F)c(-c4cc(O)cc5ccccc45)c(Cl)cc23)C[C@@H]1CC#N (atropisomer, axis not shown) [Compound 141, (2S,4R)-1-[(2R)-2-[3-({1-[2-({6-chloro-4-[(3S)-3-(cyanomethyl)-4-(2-fluoroprop-2-enoyl)piperazin-1-yl]-8-fluoro-7-(3-hydroxynaphthalen-1-yl)quinazolin-2-yl}oxy)ethyl]-piperidin-4-yl}methoxy)-1,2-oxazol-5-yl]-3-methylbutanoyl]-4-hydroxy-N-[(1S)-1-[4-(1-methyl-1H-pyrazol-5-yl)phenyl]ethyl]pyrrolidine-2-carboxamide] | 100 to 1000 | < 100 | > 70 | > 70 | 
7 | C=CC(=O)N1CCN(c2nc(OCCN3CCC(COc4cc([C@H](C(=O)N5C[C@H](O)C[C@H]5C(=O)N[C@@H](C)c5ccc(-c6scnc6C)cc5)C(C)C)on4)CC3)nc3c(F)c(-c4cc(O)cc5ccccc45)c(Cl)cc23)CC1 (atropisomer, axis not shown) [Compound 146, (2S,4R)-1-[(2R)-2-(3-{[1-(2-{[6-chloro-8-fluoro-7-(3-hydroxynaphthalen-1-yl)-4-[4-(prop-2-enoyl)piperazin-1-yl]quinazolin-2-yl]oxy}ethyl)piperidin-4-yl]methoxy}-1,2-oxazol-5-yl)-3-methylbutanoyl]-4-hydroxy-N-[(1S)-1-[4-(4-methyl-1,3-thiazol-5-yl)phenyl]ethyl]pyrrolidine-2-carboxamide] | > 1000 | > 1000 | 35 to 70 |  | 
8 | C=CC(=O)N1CCN(c2nc(OCCN3CCC(COc4cc([C@H](C(=O)N5C[C@H](O)C[C@H]5C(=O)N[C@@H](C)c5ccc(-c6scnc6C)cc5)C(C)C)on4)CC3)nc3c(F)c(-c4cc(O)cc5ccccc45)c(Cl)cc23)CC1 (atropisomer, axis not shown) [Compound 147, (2S,4R)-1-[(2R)-2-(3-{[1-(2-{[6-chloro-8-fluoro-7-(3-hydroxynaphthalen-1-yl)-4-[4-(prop-2-enoyl)piperazin-1-yl]quinazolin-2-yl]oxy}ethyl)piperidin-4-yl]methoxy}-1,2-oxazol-5-yl)-3-methylbutanoyl]-4-hydroxy-N-[(1S)-1-[4-(4-methyl-1,3-thiazol-5-yl)phenyl]ethyl]pyrrolidine-2-carboxamide] | 100 to 1000 | 100 to 1000 |  | > 70 | B (35 < B < 70)
9 | C=C(F)C(=O)N1CCN(c2nc(OCCN3CCC(COCC(=O)N[C@H](C(=O)N4C[C@H](O)C[C@H]4C(=O)N[C@@H](C)c4ccc(-c5scnc5C)cc4)C(C)(C)C)CC3)nc3c(F)c(-c4cc(O)cc5ccccc45)c(Cl)cc23)C[C@@H]1CC#N (atropisomer, axis not shown) [Compound 151, (2S,4R)-1-[(2S)-2-[2-({1-[2-({6-chloro-4-[(3S)-3-(cyanomethyl)-4-(2-fluoroprop-2-enoyl)piperazin-1-yl]-8-fluoro-7-(3-hydroxynaphthalen-1-yl)quinazolin-2-yl}oxy)ethyl]piperidin-4-yl}methoxy)acetamido]-3,3-dimethylbutanoyl]-4-hydroxy-N-[(1S)-1-[4-(4-methyl-1,3-thiazol-5-yl)phenyl]ethyl]pyrrolidine-2-carboxamide] |  | < 100 | > 70 | > 70 | 
10 | C=CC(=O)N1CCN(c2nc(OCCN3CCC(COc4cc([C@@H](C(=O)N5C[C@H](O)C[C@H]5C(=O)N[C@@H](C)c5ccc(-c6scnc6C)cc5)C(C)C)on4)CC3)nc3c(F)c(-c4cc(O)cc5ccccc45)c(Cl)cc23)C[C@@H]1CC#N (atropisomer, axis not shown) [Compound 154, (2S,4R)-1-[(2S)-2-[3-({1-[2-({6-chloro-4-[(3S)-3-(cyanomethyl)-4-(prop-2-enoyl)piperazin-1-yl]-8-fluoro-7-(3-hydroxynaphthalen-1-yl)quinazolin-2-yl}oxy)ethyl]piperidin-4-yl}methoxy)-1,2-oxazol-5-yl]-3-methylbutanoyl]-4-hydroxy-N-[(1S)-1-[4-(4-methyl-1,3-thiazol-5-yl)phenyl]ethyl]pyrrolidine-2-carboxamide] | 100 to 1000 | > 1000 | < 35 |  | 
